Measured values taken from article PMC13237026, “Structural basis for a central permeation pathway in the P2X1 receptor” (Cell Discovery, 2026).
Values belong to the molecule of their own block, whether it stands above or below them.

Legend:
[1] = target: T1, mP2X1 receptor (Mus musculus, UniProt P51576, R139A); experiment: cell-based
T1 construct: gene P2rx1

[2] = target: T2, mP2X1 receptor (Mus musculus, UniProt P51576); experiment: cell-based; parameters: gene P2rx1
T2 sequence (P51576 1-399): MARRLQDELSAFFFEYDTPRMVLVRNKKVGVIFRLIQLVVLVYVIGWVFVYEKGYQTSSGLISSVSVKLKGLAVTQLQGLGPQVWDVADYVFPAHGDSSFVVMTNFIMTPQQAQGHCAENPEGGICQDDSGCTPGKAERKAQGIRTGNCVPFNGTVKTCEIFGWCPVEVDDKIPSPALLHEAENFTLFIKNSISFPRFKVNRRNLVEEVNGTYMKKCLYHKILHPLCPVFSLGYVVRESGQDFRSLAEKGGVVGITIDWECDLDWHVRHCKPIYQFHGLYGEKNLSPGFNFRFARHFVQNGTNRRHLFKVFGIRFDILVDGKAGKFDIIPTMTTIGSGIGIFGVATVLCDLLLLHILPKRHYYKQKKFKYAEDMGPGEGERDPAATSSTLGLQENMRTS

[3] = target: T3, mP2X1 receptor (Mus musculus, UniProt P51576, K190A); experiment: cell-based
T3 construct: gene P2rx1

[4] = target: T2, mP2X1 receptor; experiment: cryo-EM structure of the complex; type: binding; parameters: gene P2rx1; full-length wild type; cryo-EM: Sf9, C-terminal His and Flag tags after HRV-3C site, homotrimer in LMNG; electrophysiology: HEK293, pCDNA3.1, labelled with mCherry
[5] = target: T4, mP2X1 receptor (Mus musculus, UniProt P51576, K140A); experiment: cell-based
T4 construct: gene P2rx1

[6] = target: T2, mP2X1 receptor; experiment: whole-cell patch clamp, HEK293, ATP-evoked mixed-cation current; type: cell-based; parameters: gene P2rx1; full-length wild type; electrophysiology: HEK293, pCDNA3.1, labelled with mCherry
[7] = target: the molecule itself; experiment: cryo-EM structure; single-particle cryo-EM of purified mP2X1 in LMNG (20 mM HEPES pH 7.0, 150 mM NaCl, 0.002% LMNG), 4.0 mg/mL; without added Ca2+, with 1, 5 or 10 mM Ca2+, or with 5 mM Ca2+ and 10 uM BTFA

T3 sequence (P51576 whole entry K190A): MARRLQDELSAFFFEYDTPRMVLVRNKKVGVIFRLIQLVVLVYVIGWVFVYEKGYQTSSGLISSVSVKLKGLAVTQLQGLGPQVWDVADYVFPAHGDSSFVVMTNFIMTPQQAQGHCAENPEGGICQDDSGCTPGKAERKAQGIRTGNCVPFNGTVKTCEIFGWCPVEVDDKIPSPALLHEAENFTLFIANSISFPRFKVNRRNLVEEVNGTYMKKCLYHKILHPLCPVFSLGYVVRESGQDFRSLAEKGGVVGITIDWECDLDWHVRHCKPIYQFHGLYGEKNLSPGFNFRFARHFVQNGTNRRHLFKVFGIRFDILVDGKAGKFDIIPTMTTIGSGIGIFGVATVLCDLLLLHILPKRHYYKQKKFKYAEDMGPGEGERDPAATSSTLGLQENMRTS
T1 sequence (P51576 whole entry R139A): as the sequence (P51576 whole entry K190A) above, with R139A, A190K counted along it
T4 sequence (P51576 whole entry K140A): as the sequence (P51576 whole entry K190A) above, with K140A, A190K counted along it

EC50 [1]: 5.29 µM
EC50 [2]: 0.829 µM
EC50 [3]: 6.74 µM
EC50 [5]: 10.3 µM
Molecule: Nc1ncnc2c1ncn2[C@@H]1O[C@H](COP(=O)(O)OP(=O)(O)OP(=O)(O)O)[C@@H](O)[C@H]1O [ATP]
cryo-EM structure of the complex ([4]; co-purified ATP, no exogenous ATP or Ca2+ added, three ATP per trimer, orthosteric site): EM maps revealed the presence of three clear ATP molecules within the structures

IC50 [6]: 4.3 µM
Molecule: Nc1cc(C(F)(F)F)cc(C(F)(F)F)c1 [BTFA, 3,5-bis(trifluoromethyl)aniline]
cryo-EM structure of the complex ([4]; 10 μM BTFA, 5 mM Ca2+, allosteric, top of central vestibule): we determined the cryo-EM structure of the P2X1–BTFA complex

B1: full-length, wild-type mouse P2X1 (mP2X1) receptor (receptor, UniProt P51576 1-399, looked up)
chain: T2 sequence (P51576 1-399)
notes: mouse P2X1 receptor (P2RX1), wild type, full length, cloned from mouse olfactory cortex cDNA; His tag and Flag tag at the C-terminus are connected by an HRV-3C protease recognition site; no cleavage is described; N-linked glycosylation is observed; also called P2RX1; P2XR1; not shown: Flag (1x), C-terminal, kept
stoichiometry N [7]: 3
